From US5747499A, “Anti-cancer compounds” (British Technology Group Limited, priority 1994, dated 1998)
Where two headings read alike, the source gives them in different places.

Legend:
thymidylate synthase = molecular target: T1, thymidylate synthase (Mus musculus, UniProt P07607); assay: Test (a): in vitro assay, inhibition of thymidylate synthase (partially purified from L1210 mouse leukaemia cells); type: biochemical
T1 construct: Thymidylate synthase may be obtained in partially purified form from L1210 mouse leukaemia cells; endogenous in cells; host or cells: L1210 mouse leukaemia cells
Text: (a) An in vitro assay which determines the ability of a test compound to inhibit the enzyme thymidylate synthase.

[1] = system: leukaemia cell line L1210; assay: Test (b): inhibition of growth of the leukaemia cell line L1210 in cell culture; type: cell-based; details: Mus musculus
Text: (b) An assay which determines the ability of a test compound to inhibit the growth of the leukaemia cell line L1210 in cell culture. The test may be similar to that described in UK Patent Specification No. 2065653B and has been described by Jones et al. (J. Med. Chem., 1985, 28, 1468);

[2] = system: human breast, ovarian and liver cancer; details: in vivo; cited from earlier work
[3] = Cancer Treatment Reports, 1986, 70, 1335; cited from earlier work
[4] = thymidylate synthase partially purified from L1210 mouse leukaemia cells, read-out: IC50 in test (a)

T1 sequence (P07607 whole entry): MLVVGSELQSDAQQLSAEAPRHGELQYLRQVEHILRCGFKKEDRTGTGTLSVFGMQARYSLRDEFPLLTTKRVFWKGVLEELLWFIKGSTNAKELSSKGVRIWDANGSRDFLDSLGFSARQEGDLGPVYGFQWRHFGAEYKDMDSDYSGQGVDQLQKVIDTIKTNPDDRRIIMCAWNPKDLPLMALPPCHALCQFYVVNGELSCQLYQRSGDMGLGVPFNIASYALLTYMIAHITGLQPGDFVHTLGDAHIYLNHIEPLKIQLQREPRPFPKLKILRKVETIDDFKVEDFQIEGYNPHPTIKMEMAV

Row | SMILES | IC50 (thymidylate synthase) [nM] | IC50 [1] [nM] | IC50 (thymidylate synthase; [4]) [nM] | activity against human breast, ovarian and liver cancer [2] | symptoms of toxicity in humans [3]
1 | Cc1nc2cc3c(cc2c(=O)[nH]1)C(N(C)c1ccc(C(=O)N[C@H](C(=O)O)c2ccc(CC(=O)O)cc2)c(F)c1)CC3 (mixture of isomers) [Example 8, (2S)-2-{o-fluoro-p-[N-methyl-N-((6RS)-2-methyl-4-oxo-3,4,7,8-tetrahydro-6H-cyclopenta[g]quinazolin-6-yl)amino]benzamido}-2-[p-(carboxymethyl)phenyl]acetic acid] | 7.6 | – | – | – | –
2 | Cc1nc2cc3c(cc2c(=O)[nH]1)C(N(C)c1ccc(C(=O)N[C@@H](CCc2nnn(CC(=O)O)n2)C(=O)O)c(F)c1)CC3 (mixture of isomers) [Example 10, (2S)-2-{o-Fluoro-p-[N-methyl-N-((6RS)-2-methyl-4-oxo-3,4,7,8-tetrahydro-6H-cyclopenta[g]quinazolin-6-yl)amino]benzamido}-4-(2-carboxymethyltetrazol-5-yl)-butyric acid] | 8.8 | 1200 | – | – | –
3 | Cc1nc2cc3c(cc2c(=O)[nH]1)C(N(C)c1ccc(C(=O)N[C@@H](CCc2nnnn2CC(=O)O)C(=O)O)c(F)c1)CC3 (mixture of isomers) [Example 11, (2S)-2-{o-Fluoro-p-[N-methyl-N-((6RS)-2-methyl-4-oxo-3,4,7,8-tetrahydro-6H-cyclopenta[g]quinazolin-6-yl)amino]benzamido}-4-(1-carboxymethyltetrazol-5-yl)-butyric acid] | 14.8 | 23000 | – | – | –
4 | Cc1nc2cc3c(cc2c(=O)[nH]1)[C@H](N(C)c1ccc(C(=O)N[C@@H](CCC(=O)N[C@@H](C(=O)O)c2ccc(CC(=O)O)cc2)C(=O)O)c(F)c1)CC3 (mixture of isomers) [Example 12, (2RS)-2-{N-{N-{o-Fluoro-p-[N-methyl-N-((6RS)-2-methyl-4-oxo-3,4,7,8-tetrahydro-6H-cyclopenta[g]quinazolin-6-yl)amino]benzoyl}-L-γ-glutamyl}amino}-2-[p-(carboxymethyl)phenyl]acetic acid] | 4 | 3900 | – | – | –
5 | C#CCN(c1ccc(C(=O)N[C@@H](CCC(=O)N(C)[C@@H](CCC(=O)O)C(=O)O)C(=O)O)cc1)C1CCc2cc3nc(C)[nH]c(=O)c3cc21 (mixture of isomers) [Example 13, N-{p-[N-((6RS)-2-Methyl-4-oxo-3,4,7,8-tetrahydro-6H-cyclopenta[g]quinazolin-6-yl)-N-(prop-2-ynyl)amino]benzoyl}-L-γ-glutamyl-N-methyl-L-glutamic acid] | 1.42 | 2300 | – | – | –
6 | C#CCN(c1ccc(C(=O)N[C@@H](CCc2nnnn2CCC(=O)O)C(=O)O)cc1)C1CCc2cc3nc(C)[nH]c(=O)c3cc21 (mixture of isomers) [Example 14, (2S)-2-{p-[N-((6RS)-2-methyl-4-oxo-3,4,7,8-tetrahydro-6H-cyclopenta[g]quinazolin-6-yl)-N-(prop-2-ynyl)amino]benzamido}-4-[1-(2-carboxyethyl)tetrazol-5-yl]butyric acid] | 1.84 | 630 | – | – | –
7 | C#CCN(c1ccc(C(=O)N[C@@H](CCC(=O)N[C@@H](CCc2nnnn2CC(=O)O)C(=O)O)C(=O)O)cc1)C1CCc2cc3nc(C)[nH]c(=O)c3cc21 (mixture of isomers) [Example 15, (2S)-2-{N-{N-{p-[N-((6RS)-2-Methyl-4-oxo-3,4,7,8-tetrahydro-6H-cyclopenta[g]quinazolin-6-yl)-N-(prop-2-ynyl)amino]benzoyl}-L-γ-glutamyl}amino}-4-(1-carboxymethyltetrazol-5-yl)butyric acid] | – | 7200 | 1.08 | – | –
8 | C#CCN(c1ccc(C(=O)N[C@@H](CCCS(=O)(=O)c2nnc[nH]2)C(=O)O)cc1)C1CCc2cc3nc(C)[nH]c(=O)c3cc21 (mixture of isomers) [Example 17, (2S)-2-{p-[N-((6RS)-2-methyl-4-oxo-3,4,7,8-tetrahydro-6H-cyclopenta[g]quinazolin-6-yl)-N-(prop-2-ynyl)amino]benzamido}-5-(1H-1,2,4-triazol-3-ylsulphonyl)pentanoic acid] | – | 250 | 1.58 | – | –
9 | C#CCN(c1ccc(C(=O)N[C@@H](CCC(=O)N[C@H](CCC(=O)O)c2nnn[nH]2)C(=O)O)cc1)C1CCc2cc3nc(C)[nH]c(=O)c3cc21 (mixture of isomers) [Example 18, (4R)-4-{N-{N-{p-[N-((6RS)-2-Methyl-4-oxo-3,4,7,8-tetrahydro-6H-cyclopenta[g]quinazolin-6-yl)-N-(prop-2-ynyl)amino]benzoyl}-L-γ-glutamyl}amino}-4-(tetrazol-5-yl)butyric acid] | 1.08 | 860 | – | – | –
10 | C#CCN(c1ccc(C(=O)N[C@@H](CCC(=O)N[C@H](C)C(=O)O)C(=O)O)cc1)C1CCc2cc3nc(C)nc(O)c3cc21 (mixture of isomers) [Example 19, N-{N-{p-[N-((6RS)-2-methyl-4-oxo-3,4,7,8-tetrahydro-6H-cyclopenta[g]quinazolin-6-yl)-N-(prop-2-ynyl)amino]benzoyl}-L-γ-glutamyl}-D-alanine] | – | 520 | 1.84 | – | –
11 | C#CCN(Cc1ccc2nc(N)[nH]c(=O)c2c1)c1ccc(C(=O)N[C@@H](CCC(=O)O)C(=O)O)cc1 [CB3717] | – | – | – | promising activity against human breast, ovarian and liver cancer | shows symptoms of toxicity in humans, particularly in relation to the liver and kidneys
12 | C#CCN(c1ccc(C(=O)N[C@@H](CCc2nnnn2CC(=O)N[C@H](C)C(=O)O)C(=O)O)cc1)C1CCc2cc3nc(C)nc(O)c3cc21 (some centres unmarked) [Example 16] | 3.4 | 10000 | – | – | –
